# Source: US6054435A, “6-O-substituted macrolides having antibacterial activity” (priority 1999, dated 2000)
# Columns and labels:
# Assay in all cases: in vitro antibacterial activity (MIC), agar dilution
# Assay type in all cases: cell-based
# [1] = tested on: Candida albicans CCH 442; settings: organism code TT; BHI agar, 35-37° C., 20 to 24 hours; unit assumed
# How it was run: (§1)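 Endpoint: lowest concentration with no growth, slight haze or sparsely isolated colonies at the inoculum spot, judged against a compound-free BHI control. Strains were replicator-inoculated at 1:100 (1:10 for Streptococcus and other slow growers).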
# [2] = tested on: Enterococcus faecium ATCC 8043; settings: organism code II; BHI agar, 35-37° C., 20 to 24 hours; unit assumed
# How it was run: as §1
# [3] = tested on: Escherichia coli DC-2; settings: organism code SS; BHI agar, 35-37° C., 20 to 24 hours; unit assumed
# How it was run: as §1
# [4] = tested on: Escherichia coli JUHL; settings: organism code QQ; BHI agar, 35-37° C., 20 to 24 hours; unit assumed
# How it was run: as §1
# [5] = tested on: Escherichia coli SS; settings: organism code RR; BHI agar, 35-37° C., 20 to 24 hours; unit assumed
# How it was run: as §1
# [6] = tested on: Haemophilis Influenzae DILL AMP R; settings: organism code WW; BHI agar, 35-37° C., 20 to 24 hours; unit assumed
# How it was run: as §1
# [7] = tested on: Micrococcus luteus ATCC 4698; settings: organism code PP; BHI agar, 35-37° C., 20 to 24 hours; unit assumed
# How it was run: (§2)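 Antibacterial MIC determined by agar dilution in BHI agar with twelve successive concentrations; controls comprised compound-free plates and a same-class reference antibiotic. MIC: lowest concentration giving no growth, slight haze or sparsely isolated colonies.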
# [8] = tested on: Micrococcus luteus ATCC 9341; settings: organism code OO; BHI agar, 35-37° C., 20 to 24 hours; unit assumed
# How it was run: as §2
# [9] = tested on: Mycobacterium smegmatis ATCC 114; settings: organism code UU; BHI agar, 35-37° C., 20 to 24 hours; unit assumed
# How it was run: as §1
# [10] = tested on: Nocardia Asteroides ATCC9970; settings: organism code VV; BHI agar, 35-37° C., 20 to 24 hours; unit assumed
# How it was run: as §1
# [11] = tested on: Staphylococcus aureus 1775; settings: organism code GG; BHI agar, 35-37° C., 20 to 24 hours; unit assumed
# How it was run: as §1
# [12] = tested on: Staphylococcus aureus A-5278; settings: organism code CC; BHI agar, 35-37° C., 20 to 24 hours; unit assumed
# How it was run: as §1
# [13] = tested on: Staphylococcus aureus A5177; settings: organism code BB; BHI agar, 35-37° C., 20 to 24 hours; unit assumed
# How it was run: as §1
# [14] = tested on: Staphylococcus aureus ATCC 6538P; settings: organism code AA; BHI agar, 35-37° C., 20 to 24 hours; unit assumed
# How it was run: as §1
# [15] = tested on: Staphylococcus aureus CMX 553; settings: organism code FF; BHI agar, 35-37° C., 20 to 24 hours; unit assumed
# How it was run: as §1
# [16] = tested on: Staphylococcus aureus CMX 642A; settings: organism code DD; BHI agar, 35-37° C., 20 to 24 hours; unit assumed
# How it was run: as §1
# [17] = tested on: Staphylococcus aureus NCTC10649M; settings: organism code EE; BHI agar, 35-37° C., 20 to 24 hours; unit assumed
# How it was run: as §1
# [18] = tested on: Staphylococcus epidermidis 3519; settings: organism code HH; BHI agar, 35-37° C., 20 to 24 hours; unit assumed
# How it was run: as §1
# [19] = tested on: Streptococcus Pneumonia 5649; settings: organism code ZZA; BHI agar, 35-37° C., 20 to 24 hours; unit assumed
# How it was run: as §1
# [20] = tested on: Streptococcus Pneumonia 5979; settings: organism code ZZ; BHI agar, 35-37° C., 20 to 24 hours; unit assumed
# How it was run: as §1
# [21] = tested on: Streptococcus Pneumonia ATCC6303; settings: organism code XX; BHI agar, 35-37° C., 20 to 24 hours; unit assumed
# How it was run: as §1
# [22] = tested on: Streptococcus Pneumonia GYR 1171; settings: organism code YY; BHI agar, 35-37° C., 20 to 24 hours; unit assumed
# How it was run: as §1
# [23] = tested on: Streptococcus agalactiae CMX 508; settings: organism code KK; BHI agar, 35-37° C., 20 to 24 hours; unit assumed
# How it was run: as §1
# [24] = tested on: Streptococcus bovis A-5169; settings: organism code JJ; BHI agar, 35-37° C., 20 to 24 hours; unit assumed
# How it was run: as §1
# [25] = tested on: Streptococcus pyogenes 930; settings: organism code MM; BHI agar, 35-37° C., 20 to 24 hours; unit assumed
# How it was run: as §1
# [26] = tested on: Streptococcus pyogenes EES61; settings: organism code LL; BHI agar, 35-37° C., 20 to 24 hours; unit assumed
# How it was run: as §1
# [27] = tested on: Streptococcus pyogenes PIU 2548; settings: organism code NN; BHI agar, 35-37° C., 20 to 24 hours; unit assumed
# How it was run: as §1
Compound,MIC [1],MIC [2],MIC [3],MIC [4],MIC [5],MIC [6],MIC [7],MIC [8],MIC [9],MIC [10],MIC [11],MIC [12],MIC [13],MIC [14],MIC [15],MIC [16],MIC [17],MIC [18],MIC [19],MIC [20],also measured
CC[C@H]1OC(=O)[C@H](C)C(=O)[C@H](C)[C@@H](O[C@@H]2O[C@H](C)C[C@H](N(C)C)[C@H]2O)[C@](C)(OCC#Cc2ccc(-c3cncs3)s2)C[C@@H](C)C(=O)[C@H](C)[C@H]2NC(=O)O[C@@]21C [Example 29],> 100 mg/L,0.01 mg/L,50 mg/L,25 mg/L,0.1 mg/L,2 mg/L,0.05 mg/L,≤ 0.005 mg/L,0.39 mg/L,≤ 0.005 mg/L,> 100 mg/L,> 100 mg/L,0.05 mg/L,0.05 mg/L,0.02 mg/L,0.05 mg/L,0.02 mg/L,0.05 mg/L,0.25 mg/L,1 mg/L,MIC [21]: ≤ 0.004 mg/L; MIC [22]: ≤ 0.004 mg/L; MIC [23]: 0.01 mg/L; MIC [24]: ≤ 0.005 mg/L; MIC [25]: 3.1 mg/L; MIC [26]: 0.01 mg/L; MIC [27]: 0.05 mg/L
CC[C@H]1OC(=O)[C@H](C)C(=O)[C@H](C)[C@@H](O[C@@H]2O[C@H](C)C[C@H](N(C)C)[C@H]2O)[C@](C)(OCC#Cc2ccc(-c3nccn3C)s2)C[C@@H](C)C(=O)[C@H](C)[C@H]2NC(=O)O[C@@]21C [Example 32],> 100 mg/L,0.02 mg/L,> 100 mg/L,50 mg/L,0.2 mg/L,2 mg/L,0.05 mg/L,0.01 mg/L,1.56 mg/L,0.01 mg/L,> 100 mg/L,> 100 mg/L,0.05 mg/L,0.05 mg/L,0.05 mg/L,0.05 mg/L,0.1 mg/L,0.1 mg/L,0.25 mg/L,0.25 mg/L,MIC [21]: 0.03 mg/L; MIC [22]: 0.03 mg/L; MIC [23]: 0.01 mg/L; MIC [24]: ≤ 0.005 mg/L; MIC [25]: 12.5 mg/L; MIC [26]: 0.01 mg/L; MIC [27]: 0.39 mg/L
CC[C@H]1OC(=O)[C@H](C)C(=O)[C@H](C)[C@@H](O[C@@H]2O[C@H](C)C[C@H](N(C)C)[C@H]2O)[C@](C)(OCC#Cc2ccc(-c3cnc4ccccc4n3)s2)C[C@@H](C)C(=O)[C@H](C)[C@H]2NC(=O)O[C@@]21C [Example 33],> 100 mg/L,0.05 mg/L,> 100 mg/L,> 100 mg/L,0.78 mg/L,4 mg/L,0.05 mg/L,0.05 mg/L,0.2 mg/L,0.1 mg/L,50 mg/L,25 mg/L,0.2 mg/L,0.2 mg/L,0.2 mg/L,0.2 mg/L,0.39 mg/L,0.2 mg/L,0.25 mg/L,0.25 mg/L,MIC [21]: 0.03 mg/L; MIC [22]: 0.03 mg/L; MIC [23]: 0.01 mg/L; MIC [24]: 0.01 mg/L; MIC [25]: 0.39 mg/L; MIC [26]: 0.02 mg/L; MIC [27]: 0.2 mg/L
CC[C@H]1OC(=O)[C@H](C)C(=O)[C@H](C)[C@@H](O[C@@H]2O[C@H](C)C[C@H](N(C)C)[C@H]2O)[C@](C)(OCC#Cc2ccc(-c3cc4ccccc4s3)s2)C[C@@H](C)C(=O)[C@H](C)[C@H]2NC(=O)O[C@@]21C [Example 34],> 100 mg/L,0.2 mg/L,> 100 mg/L,> 100 mg/L,1.56 mg/L,16 mg/L,0.2 mg/L,0.02 mg/L,0.39 mg/L,0.39 mg/L,12.5 mg/L,50 mg/L,0.2 mg/L,0.39 mg/L,0.2 mg/L,0.39 mg/L,0.2 mg/L,0.39 mg/L,2 mg/L,8 mg/L,MIC [21]: 0.25 mg/L; MIC [22]: 0.25 mg/L; MIC [23]: 0.02 mg/L; MIC [24]: 0.02 mg/L; MIC [25]: 1.56 mg/L; MIC [26]: 0.02 mg/L; MIC [27]: 0.39 mg/L
CC[C@H]1OC(=O)[C@H](C)C(=O)[C@H](C)[C@@H](O[C@@H]2O[C@H](C)C[C@H](N(C)C)[C@H]2O)[C@](C)(OC/C=C/c2cncc(-n3ccnc3)c2)C[C@@H](C)C(=O)[C@H](C)[C@H]2NC(=O)O[C@@]21C [Example 37],> 100 mg/L,0.05 mg/L,50 mg/L,50 mg/L,0.39 mg/L,4 mg/L,0.2 mg/L,0.01 mg/L,3.1 mg/L,0.1 mg/L,> 100 mg/L,> 100 mg/L,0.1 mg/L,0.1 mg/L,0.1 mg/L,0.1 mg/L,0.2 mg/L,0.1 mg/L,2 mg/L,> 128 mg/L,MIC [21]: ≤ 0.004 mg/L; MIC [22]: ≤ 0.004 mg/L; MIC [23]: 0.02 mg/L; MIC [24]: 0.01 mg/L; MIC [25]: 25 mg/L; MIC [26]: 0.02 mg/L; MIC [27]: 0.39 mg/L
